US4400517A, “Phosphoric esters derived from 1,2,4-triazole having an insecticidal, nematocidal and acaricidal action, and their preparation” (priority 1976, dated 1983)
Read-outs that look alike come from different tables or passages of the source.

What was measured:
Culex pipiens = assay: Biological activity on Culex pipiens larvae (Diptera); format: in vivo; conditions: for mortality at 0.2 ppm: 24 h, 0,2 ppm
Procedure: (4) Biological activity on Culex pipiens (Diptera)
Into glasses containing an aqueous dispersion of the products under examination (see Tables 4 and 5) there were introduced mosquito larvae of third and fourth age.
The mortality percentage of the larvae (glasses containing pure water=0) was determined after 24 hours from treatment.

warm-blooded animals = assay: Toxicity toward warm-blooded animals / mammals; format: in vivo
Tetranychus urticae = assay: Biological activity on adults of Tetranychus urticae (Acari); format: in vivo; conditions: for mortality at 0.0005 %: 24 h, 0,005%o
Procedure: (5) Biological activity on adults of Tetranychus urticae (Acari)
Discs of bean leaves were infested with adult acari and then sprinkled with an aqueous dispersion of the products under examination (see Tables 4 and 5).
The mortality percentage was determined after 24 hours from treatment (untreated leaf discs, mortality=0).

Pieris brassicae = assay: Biological activity on Pieris brassicae (Lepidoptera); format: in vivo; conditions: 48 h, Table 5, read-out: Activity (mortality class), Pieris B.; for mortality at 0.001 %: 0.01%o
Procedure: (2) Biological activity on Pieris brassicae (Lepidotera)
Cut-off cauliflower leaves were sprinkled with an aqueous dispersion of the products under examination (see TABLE 5).
After drying, the leaves were infested with 5-day old larvae. The percentage of mortality of the larvae (untreated leaves=0) was determined after 48 hours from treatment.

Spodoptera littoralis = assay: Biological activity on Spodoptera littoralis (Lepidoptera); format: in vivo; conditions: for mortality at 0.01 %: 48 h, 0,1%o
Procedure: (7) Biological activity on Spodoptera littoralis (Lepidoptera)
Cut tobacco leaves were sprinkled with an aqueous dispersion of the products under examination (see Tables 4 and 5).
After drying, the leaves were infested with 5-day old larvae.
The percentage of mortality of the larvae was determined after 48 hours from treatment (untreated leaves, mortality=0).

[1] = test system: Leptinotarsa decemlineata; assay: Biological activity on Leptinotarsa decemlineata (Coleoptera); format: in vivo; conditions: for mortality at 0.01 %: 48 h, 0,1%o
Procedure: (3) Biological activity on Leptinotarsa decemlineata (Coleoptera)
Small potato plants grown in pots were infested with 4-day old larvae, and were then sprinkled with an aqueous dispersion of the products under examination (see Tables 4 and 5).
The mortality percentage (untreated small plants=0) was determined after 48 hours from treatment.

Locusta M. = assay: Activity on Locusta M.; conditions: in vivo
Meloidogyne icognita = assay: Biological activity on Meloidogyne icognita (Nematoda); format: in vivo; conditions: 20 ppm; Table 4
Procedure: (8) Biological activity on Meloidogyne icognita (Nematoda)
A 1:1 mixture of field soil and sand, infested with newborne larvae and eggs of Nematoda, were treated, by uniform admixing, with an aqueous dispersion of the products under examination (see Tables 4 and 5). The soil was then distributed into plastic pots, and after 5 days in each pot there were planted 5 small tomato plants about 20 cm high.
The results were recorded 21 days after the transplanting.
The nematocidal activity was expressed as the percentage reduction of infestation with respect to the witness (small plants transplanted into a non-treated soil, activity=0).

Hilemyia brassicae = assay: Biological activity on Hilemyia brassicae (Diptera); format: in vivo; conditions: Table 4
Procedure: (9) Biological activity on Hilemyia brassicae (Diptera)
Samples of soil were treated by uniform mixing with an aqueous dispersion of the products under examination (see Tables 4 and 5). The soil was then divided into two pots and in each of these 4 small radish plants were transplanted. The plants were subsequently infected by putting to the soil 50 Diptera eggs in the middle of the surface of the pots.
The results were recorded 10 days after treatment by extracting the plants from the soil and by counting the number of larvae present on the roots and on the surrounding soil.
The insecticidal activity was expressed as percentage of reduction of the infestation in comparison with the witness plants (plants transplanted into untreated soil, activity=0).

Blatta orientalis = assay: Biological activity on Blatta orientalis (Ortoptera); format: in vivo; conditions: for % ge of activity, Blatta o.: Table 4, 2880 min
Procedure: (10) Biological activity on Blatta orientalis (Ortoptera)
The bottom and walls of glass crystallizers were treated uniformly with an acetonic solution of the products under examination (see Tables 4 and 5). After evaporation of the solvent, into each crystallizer were introduced ten 80-100 days old neanides. The crystallizers were then closed with a metal net cover. After 24 hours from the start of the treatment, the insects were transferred to similar untreated crystallizers, and there were appropriately nourished in conventional manner.
The percentage of mortality (untreated insects=0) was determined after 48 hours from the start of the treatment.

[2] = Toxicity on albino rats by oral administration; conditions: rat, in vivo
[3] = test system: orthoptera, lepidoptera, coleoptera, diptera, nematoda and acari; assay: Comparison of the insecticidal, acaricidal and nematocidal activities; format: in vivo; conditions: M 8174 vs M 8172 (Table 4); Tables 4 and 5
Source text: Of this material (M 8172) we have estimated the effects on various arthropods at decreasing doses, together with effects shown by a representative compound of the class described by us in this invention (M 8174).

[4] = 24 h, 0,02 ppm, Table 4, read-out: % ge of activity, Culex p.
[5] = Table 4, read-out: % ge of activity, Culex p.
[6] = 24 h, 0,01%o, Table 4, read-out: % ge of activity, Tetranycus u. (ad.)
[7] = Table 4, read-out: % ge of activity, Tetranycus u. (ad.)
[8] = Table 4, read-out: % ge of activity, Spodoptera l.
[9] = 48 h, 0,05%o, Table 4, read-out: % ge of activity, Spodoptera l.
[10] = Table 4, read-out: % ge of activity, Leptinotarsa d.
[11] = 48 h, 0,05%o, Table 4, read-out: % ge of activity, Leptinotarsa d.
[12] = Blatta orientalis, 48 h, 0,01 g/m^2, Table 5, read-out: Activity (mortality class), Blatta O.

SMILES	mortality at 0.02 ppm (Culex pipiens; [4])	mortality at 0.2 ppm (Culex pipiens; [5])	mortality at 0.001 % (Tetranychus urticae; [6])	mortality at 0.0005 % (Tetranychus urticae; [7])	mortality at 0.001 % (Pieris brassicae)	mortality at 0.01 % (Spodoptera littoralis; [8])	mortality at 0.005 % (Spodoptera littoralis; [9])	mortality at 0.01 % [1, 10]	mortality at 0.005 % [1, 11]	% ge of activity, Meloidogyne i. (Meloidogyne icognita)	% ge of activity, Hylemyia b. (Hilemyia brassicae; 2 ppm)	% ge of activity, Hylemyia b. (Hilemyia brassicae; 10 ppm)	% ge of activity, Blatta o. (Blatta orientalis; 0,01 g/m^2)	% ge of activity, Blatta o. (Blatta orientalis; 0,1 g/m^2)	mortality at 0.01 g/m2 (Blatta orientalis; [12])	other results
CCOP(=S)(OCC)Oc1nc(-c2ccccc2)nn1C [M 8172, 0,0-diethyl-0-[1-methyl-3-phenyl-1,2,4-triazolyl(5)]-thiophosphate, reference compound]	0%	100%	96%	76%	0 to 9%	100%	15%	92%	10%	40%	48%	98%	20%	100%	10 to 69%	mortality at 0.02 ppm (Culex pipiens; 24 h, read-out: Activity (mortality class), Culex P. (larvae)): 0 to 9%; toxicity in words (warm-blooded animals): low toxicity towards mammals; mortality at 0.001 % (Tetranychus urticae; 24 h, read-out: Activity (mortality class), Tetranychus U. (adults)): 70 to 99%; mortality at 0.005 % (Spodoptera littoralis; 48 h, read-out: Activity (mortality class), Spodoptera L.): 10 to 69%; mortality at 0.005 % ([1]; 48 h, read-out: Activity (mortality class), Leptinotarsa D.): 10 to 69%; Activity (mortality class), Locusta M. (Locusta M.): + (70-99% of mort.)
CCOP(=S)(OCC)Oc1nc(C=C(Cl)Cl)nn1C [M 8174]	100%	100%	100%	100%	100%	100%	90%	100%	100%	100%	100%	100%	100%	100%	100%	mortality at 0.02 ppm (Culex pipiens; 24 h, 0.02 ppm, Table 5, read-out: Activity (mortality class), Culex P. (larvae)): 100%; mortality at 2 ppm (Culex pipiens; 24 h, 2 ppm, Table 5, read-out: Activity (mortality class), Culex P. (larvae)): 100%; mortality at 0.001 % (Tetranychus urticae; 24 h, 0.01%o, Table 5, read-out: Activity (mortality class), Tetranychus U. (adults)): 100%; mortality at 0.1 % (Tetranychus urticae; 24 h, 1%o, Table 5, read-out: Activity (mortality class), Tetranychus U. (adults)): 100%; mortality at 0.1 % (Pieris brassicae; 1%o): 100%; mortality at 0.005 % (Spodoptera littoralis; 48 h, 0.05%o, Table 5, read-out: Activity (mortality class), Spodoptera L.): 100%; mortality at 0.1 % (Spodoptera littoralis; 48 h, 1%o, Table 5, read-out: Activity (mortality class), Spodoptera L.): 100%; mortality at 0.005 % ([1]; 48 h, 0.05%o, Table 5, read-out: Activity (mortality class), Leptinotarsa D.): 100%; mortality at 0.1 % ([1]; 48 h, 1%o, Table 5, read-out: Activity (mortality class), Leptinotarsa D.): 100%; mortality at 1 g/m2 (Blatta orientalis; Blatta orientalis, 48 h, 1 g/m^2, Table 5, read-out: Activity (mortality class), Blatta O.): 100%; LD50 [2]: 1600 mg/kg; activity in words [3]: significantly better activity
